The values that follow are results of earlier work, collected in publication PMC5907794 (Journal of Medicinal Chemistry, 2018).

The conditions of data set [1]: ref 60−63.
The conditions of data set [2]: ref 60−62.

Take `CC(=O)O[C@H]1C(=O)[C@@]2(C)[C@H]([C@H](OC(=O)c3ccccc3)[C@]3(O)C[C@H](OC(=O)[C@H](O)[C@@H](NC(=O)c4ccccc4)c4ccccc4)C(C)=C1C3(C)C)[C@]1(OC(C)=O)CO[C@@H]1C[C@@H]2O` [Paclitaxel, paclitaxel]: in data set [1], the Dose-limiting side effects result is given as “severe dose-limiting side effects”. In addition, the “Solubility in aqueous media (in words)” value in data set [2] is “low solubility in aqueous media”.
